Assay results reported in patent publication EP0745390A2, “Polymeric prodrugs for beta-lactamase and uses thereof” (priority 1995, dated 1996).

How the values were obtained:
[1] = Toxicity in nude mice (maximum tolerated dose), single intravenous injection
[2] = in mice; cited from earlier work
[3] = test system: H2981 human lung adenocarcinoma cell line; assay: In vitro cytotoxicity assay, incorporation of [^3H] thymidine into DNA; format: cell-based; conditions: H2981 cells, non-conjugate treated, doxorubicin instead of PEG-AC-Dox (Figure 3)
bL = bL (Enterobacter cloacae, UniProt P05364); format: biochemical; conditions: 3-4 independently run experiments
Sequence of bL (P05364 21-381): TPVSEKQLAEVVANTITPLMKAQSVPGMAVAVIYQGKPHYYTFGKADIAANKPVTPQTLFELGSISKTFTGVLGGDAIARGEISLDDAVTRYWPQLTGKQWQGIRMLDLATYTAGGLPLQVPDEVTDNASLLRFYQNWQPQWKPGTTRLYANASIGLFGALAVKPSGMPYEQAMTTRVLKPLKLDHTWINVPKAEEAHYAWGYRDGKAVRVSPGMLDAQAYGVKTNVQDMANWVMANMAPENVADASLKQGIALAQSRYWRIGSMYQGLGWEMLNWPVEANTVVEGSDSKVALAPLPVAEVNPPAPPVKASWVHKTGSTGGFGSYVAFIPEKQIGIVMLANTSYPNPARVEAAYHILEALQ

Row | SMILES | maximum tolerated dose ([1]; nude mice, single intravenous injection, dose giving < 20% weight loss, no deaths) [µmol/kg body weight] | MTD ([1]; nude, mouse, in vivo, iv) [mg/kg] | initial half life [2] [min] | IC50 [3] [nM] | Vmax (bL; hydrolysis by bL in phosphate buffered saline containing bovine serum albumin) [µmol/mim /mg] | Km (bL; hydrolysis by bL) [µM] | kcat (bL; hydrolysis by bL) [s⁻¹]
1 | COc1cccc2c1C(=O)c1c(O)c3c(c(O)c1C2=O)C[C@@](O)(C(=O)CO)C[C@@H]3O[C@H]1C[C@H](N)[C@H](O)[C@H](C)O1 [doxorubicin] | 13.8 | 8 | 2 | 100 to 200 | – | – | –
2 | COc1cccc2c1C(=O)c1c(O)c3c(c(O)c1C2=O)C[C@@](O)(C(=O)CO)C[C@@H]3O[C@H]1C[C@H](NC(=O)OCC2=C(C(=O)O)N3C(=O)[C@@H](NC(=O)Cc4ccccc4)[C@H]3SC2)[C@H](O)[C@H](C)O1 [C-Dox, 7-phenylacetylcephalosporin doxorubicin] | – | – | – | – | 400 ± 96 | 46 ± 6 | 280 ± 67
